Data as given in US10925876B2, “Methods for using triazolo-pyrazinyl soluble guanylate cyclase activators in fibrotic disorders” (Merck Sharp & Dohme Corp., priority 2016, dated 2021).

Target: T1, sGC α1/β1 heterodimer (Homo sapiens, UniProt Q02108+Q02153)
T1 construct: expressed in transfected cells
T1 sequence (Q02108 1-690): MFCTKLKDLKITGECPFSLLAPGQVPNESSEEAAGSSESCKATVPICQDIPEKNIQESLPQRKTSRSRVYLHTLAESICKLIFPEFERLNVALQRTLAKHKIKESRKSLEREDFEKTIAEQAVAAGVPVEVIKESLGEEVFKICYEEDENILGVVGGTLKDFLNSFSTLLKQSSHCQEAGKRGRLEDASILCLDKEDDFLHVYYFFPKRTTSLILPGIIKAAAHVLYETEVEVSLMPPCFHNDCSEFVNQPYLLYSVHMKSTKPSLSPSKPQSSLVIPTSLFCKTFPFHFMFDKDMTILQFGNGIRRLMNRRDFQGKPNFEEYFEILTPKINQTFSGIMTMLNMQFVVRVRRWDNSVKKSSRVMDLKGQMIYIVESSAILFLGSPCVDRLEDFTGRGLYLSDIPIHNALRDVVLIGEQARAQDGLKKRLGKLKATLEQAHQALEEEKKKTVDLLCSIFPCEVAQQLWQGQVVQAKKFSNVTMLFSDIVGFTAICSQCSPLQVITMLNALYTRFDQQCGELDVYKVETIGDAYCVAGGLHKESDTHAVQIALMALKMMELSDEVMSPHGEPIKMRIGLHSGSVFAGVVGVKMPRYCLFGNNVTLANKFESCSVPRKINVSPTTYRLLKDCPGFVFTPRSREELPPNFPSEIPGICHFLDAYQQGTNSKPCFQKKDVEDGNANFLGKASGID
T1 sequence (Q02153 1-619): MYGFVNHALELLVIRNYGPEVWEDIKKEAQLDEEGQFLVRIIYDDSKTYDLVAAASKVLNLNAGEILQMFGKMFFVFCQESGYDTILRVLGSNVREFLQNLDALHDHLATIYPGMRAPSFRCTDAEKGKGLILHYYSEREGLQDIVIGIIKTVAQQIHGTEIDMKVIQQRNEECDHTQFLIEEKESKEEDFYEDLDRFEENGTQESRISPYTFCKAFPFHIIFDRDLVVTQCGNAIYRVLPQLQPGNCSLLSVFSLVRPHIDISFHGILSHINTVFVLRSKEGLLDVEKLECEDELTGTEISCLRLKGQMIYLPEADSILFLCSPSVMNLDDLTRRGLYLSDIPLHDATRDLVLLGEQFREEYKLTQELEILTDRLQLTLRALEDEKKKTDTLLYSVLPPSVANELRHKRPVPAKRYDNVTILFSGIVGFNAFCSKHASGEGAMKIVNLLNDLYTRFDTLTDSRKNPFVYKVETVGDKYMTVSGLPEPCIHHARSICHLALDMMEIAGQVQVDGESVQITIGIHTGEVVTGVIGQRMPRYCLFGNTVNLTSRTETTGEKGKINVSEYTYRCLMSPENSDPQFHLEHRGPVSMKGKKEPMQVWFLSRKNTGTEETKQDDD
Test: Cell-Based sGC Functional Assay (CASA Assay), cGMP generation in CHO-K1/sGC cells
Conditions: maximum cGMP production of Compound A set to 100% activation, read-out: % Act. (percent activation relative to Compound A)
Description: sGC is a heme-containing enzyme that converts GTP to secondary messenger cGMP. Increases in cGMP levels affect several physiological processes including vasorelaxation through multiple downstream pathways. […] Heme-dependent activators (HDAs) preferentially activate sGC containing a ferrous heme group. To determine the effect of sGC activators on enzyme activity, the CASA assay was developed to monitor the generation of cGMP in a cell line that stably expresses the heterodimeric sGC protein.
A CHO-K1 cell line stably expressing the sGC α1/β1 heterodimer was generated using a standard transfection protocol. CHO-K1 cells were transfected with plasmids pIREShyghsGCα1 and pIRESneo-hsGCβ1 simultaneously using FUGENE reagent. Clones that stably express both subunits were selected with hygromycin and neomycin for ˜2 weeks. Clone #7 was chosen for the assay and was designated CHO-K1/sGC. CHO-K1/sGC cells were maintained in F-K12 medium containing 10% heat-inactivated Fetal Bovine Serum (FBS), 100 μg/mL penicillin/streptomycin, 0.5 mg/mL hygromycin and 0.25 mg/mL G418. The cells were then cryopreserved in LN2. On the day of the assay, cells thawed and resuspended in EBSS Assay Buffer (Sigma, E3024) supplemented with 5 mM MgCl2, 10 mM HEPES (4-(2-hydroxyethyl)piperazine-1-ethanesulfonic acid) and 0.05% BSA (bovine serum albumin) (EAB) and cell density was then adjusted to 4×10^5/mL with EAB. IBMX (3-isobutyl-1-methylxanthin, 0.5 mM) was added to inhibit degradation of cGMP. Compounds were diluted from DMSO stock solutions and added to the assay at a final DMSO concentration of 2.5%. Cells were incubated with compounds in the presence and absence of 1 μM of Diethylenetriamine/nitric oxide adduct (DETA-NO; Sigma, 17018) for 1 hr at 37° C. At the end of the incubation period, the reaction was terminated and the cells were lysed with the detection reagents from Cisbio Kits. The level of intracellular cGMP was determined using an HTRF-based assay kit (CisBio, 62GM2PEC), which detects the displacement of a fluorescence labeled cGMP from its specific antibody. The cGMP produced by test compounds was directly compared to the maximum cGMP production (this value was set to equal 100% activation.) of the published sGC-HDA Compound A:
[drawing 298] (Example 1 in WO 2010/065275, published Jun. 10, 2010). The test compounds' activities were then expressed as a percentage of Compound A, the standard in every experiment. This percent activation was calculated either in the presence or absence of DETA-NO which was then plotted. IP and maximum fold induction was derived using ADA analysis software for 4P fit.

Row | Structure (SMILES) | Emax [%]
1 | CC1(c2cnc(C(F)(F)F)cn2)C(=O)Nc2nc(-c3cn4ncnc4c(CCCC(F)(F)F)n3)nc(N)c21 (centres unmarked) [Example 50B, 4-amino-5-methyl-2-(8-(4,4,4-trifluorobutyl)-[1,2,4]triazolo[1,5-a]pyrazin-6-yl)-5-(5-(trifluoromethyl)pyrazin-2-yl)-5H-pyrrolo[2,3-d]pyrimidin-6(7H)-one] | 191
2 | CCCc1nc(-c2nc(N)c3c(n2)NC(=O)C3(c2ccc(F)c(F)c2)C2CC2)cn2ncnc12 (centres unmarked) [Example 58A, 4-amino-5-cyclopropyl-5-(3,4-difluorophenyl)-2-(8-propyl-[1,2,4]triazolo[1,5-a]pyrazin-6-yl)-5H-pyrrolo[2,3-d]pyrimidin-6(7H)-one] | 169
3 | CC1(c2ccc(Cl)c(F)c2)C(=O)Nc2nc(-c3cn4ncnc4c(CCCC(F)(F)F)n3)nc(N)c21 (centres unmarked) [Example 28B, 4-amino-5-(4-chloro-3-fluorophenyl)-5-methyl-2-(8-(4,4,4-trifluorobutyl)-[1,2,4]triazolo[1,5-a]pyrazin-6-yl)-5H-pyrrolo[2,3-d]pyrimidin-6(7H)-one] | 171
4 | CC1(c2ccc(Cl)cc2)C(=O)Nc2nc(-c3cn4ncnc4c(CCC(F)(F)C(F)(F)F)n3)nc(N)c21 (centres unmarked) [Example 10A, 4-amino-5-(4-chlorophenyl)-5-methyl-2-(8-(3,3,4,4,4-pentafluorobutyl)-[1,2,4]triazolo[1,5-a]pyrazin-6-yl)-5H-pyrrolo[2,3-d]pyrimidin-6(7H)-one] | 137
5 | CC1(c2ccc(F)c(F)c2)C(=O)Nc2nc(-c3cn4ncnc4c(CCCC(F)(F)F)n3)nc(N)c21 (centres unmarked) [Example 38B, 4-amino-5-(3,4-difluorophenyl)-5-methyl-2-(8-(4,4,4-trifluorobutyl)-[1,2,4]triazolo[1,5-a]pyrazin-6-yl)-5H-pyrrolo[2,3-d]pyrimidin-6(7H)-one] | 120
6 | Nc1nc(-c2cn3ncnc3c(CCC(F)(F)C(F)(F)F)n2)nc2c1C(c1ccc(F)c(F)c1)(C1CC1)C(=O)N2 (centres unmarked) [Example 6A, 4-amino-5-cyclopropyl-5-(3,4-difluorophenyl)-2-(8-(3,3,4,4,4-pentafluorobutyl)-[1,2,4]triazolo[1,5-a]pyrazin-6-yl)-5H-pyrrolo[2,3-d]pyrimidin-6(7H)-one] | 140
7 | CCCc1nc(-c2nc(N)c3c(n2)NC(=O)C3(C)c2ccc(F)cn2)cn2ncnc12 (centres unmarked) [Example 54B, 4-amino-5-(5-fluoropyridin-2-yl)-5-methyl-2-(8-propyl-[1,2,4]triazolo[1,5-a]pyrazin-6-yl)-5H-pyrrolo[2,3-d]pyrimidin-6(7H)-one] | 210
8 | Nc1nc(-c2cn3ncnc3c(CCCC(F)(F)F)n2)nc2c1C(c1ccc(Cl)cn1)(C1CC1)C(=O)N2 (centres unmarked) [Example 27A, 4-amino-5-(5-chloropyridin-2-yl)-5-cyclopropyl-2-(8-(4,4,4-trifluorobutyl)-[1,2,4]triazolo[1,5-a]pyrazin-6-yl)-5H-pyrrolo[2,3-d]pyrimidin-6(7H)-one] | 178
9 | CC1(c2ccc(C(F)F)cn2)C(=O)Nc2nc(-c3cn4ncnc4c(CCCC(F)(F)F)n3)nc(N)c21 (centres unmarked) [Example 43B, 4-amino-5-(5-(difluoromethyl)pyridin-2-yl)-5-methyl-2-(8-(4,4,4-trifluorobutyl)-[1,2,4]triazolo[1,5-a]pyrazin-6-yl)-5H-pyrrolo[2,3-d]pyrimidin-6(7H)-one] | 69
10 | CCCCc1nc(-c2nc(N)c3c(n2)NC(=O)C3(c2ccc(F)cn2)C2CC2)cn2ncnc12 (centres unmarked) [Example 66A, 4-amino-2-(8-butyl-[1,2,4]triazolo[1,5-a]pyrazin-6-yl)-5-cyclopropyl-5-(5-fluoropyridin-2-yl)-5H-pyrrolo[2,3-d]pyrimidin-6(7H)-one] | 162

Other lines, results leading:

Row | Emax [%] | Structure (SMILES)
11 | 136 | CC1(c2ccc(Cl)c(F)c2)C(=O)Nc2nc(-c3cn4ncnc4c(CCC(F)(F)F)n3)nc(N)c21 (centres unmarked) [Example 75B, 4-amino-5-(4-chloro-3-fluorophenyl)-5-methyl-2-(8-(3,3,3-trifluoropropyl)-[1,2,4]triazolo[1,5-a]pyrazin-6-yl)-5H-pyrrolo[2,3-d]pyrimidin-6(7H)-one]
12 | 85 | CCCCc1nc(-c2nc(N)c3c(n2)NC(=O)C3(c2ccccn2)C2CC2)cn2ncnc12 (centres unmarked) [Example 116A, 4-amino-2-(8-butyl-[1,2,4]triazolo[1,5-a]pyrazin-6-yl)-5-cyclopropyl-5-(pyridin-2-yl)-5H-pyrrolo[2,3-d]pyrimidin-6(7H)-one]
13 | 184 | CC1(c2nnc(C(F)F)o2)C(=O)Nc2nc(-c3cn4ncnc4c(CCCC(F)(F)F)n3)nc(N)c21 (centres unmarked) [Example 100A, 4-amino-5-(5-(difluoromethyl)-1,3,4-oxadiazol-2-yl)-5-methyl-2-(8-(4,4,4-trifluorobutyl)-[1,2,4]triazolo[1,5-a]pyrazin-6-yl)-5H-pyrrolo[2,3-d]pyrimidin-6(7H)-one]
14 | 133 | CCCCc1nc(-c2nc(N)c3c(n2)NC(=O)C3(c2ccc(C(F)(F)F)cn2)C2CC2)cn2ncnc12 (centres unmarked) [Example 70A, 4-amino-2-(8-butyl-[1,2,4]triazolo[1,5-a]pyrazin-6-yl)-5-cyclopropyl-5-(5-(trifluoromethyl)pyridin-2-yl)-5H-pyrrolo[2,3-d]pyrimidin-6(7H)-one]
15 | 122 | C[C@@]1(c2ccc(F)cc2)C(=O)Nc2nc(-c3cn4ncnc4c(CCC(F)(F)C(F)(F)F)n3)ncc21 [Example 172A, (S)-5-(4-fluorophenyl)-5-methyl-2-(8-(3,3,4,4,4-pentafluorobutyl)-[1,2,4]triazolo[1,5-a]pyrazin-6-yl)-5,7-dihydro-6H-pyrrolo[2,3-d]pyrimidin-6-one]
16 | 129 | CC1(c2ccccn2)C(=O)Nc2nc(-c3cn4ncnc4c(CCC(F)(F)C(F)(F)F)n3)nc(O)c21 (centres unmarked) [Example 127B, 4-hydroxy-5-methyl-2-(8-(3,3,4,4,4-pentafluorobutyl)-[1,2,4]triazolo[1,5-a]pyrazin-6-yl)-5-(pyridin-2-yl)-5H-pyrrolo[2,3-d]pyrimidin-6(7H)-one]
17 | 135 | Cc1nc2c(CCC(F)(F)C(F)(F)F)nc(-c3nc(N)c4c(n3)NC(=O)C4(C)c3ccc(Cl)c(F)c3)cn2n1 (centres unmarked) [Example 90B, 4-amino-5-(4-chloro-3-fluorophenyl)-5-methyl-2-(2-methyl-8-(3,3,4,4,4-pentafluorobutyl)-[1,2,4]triazolo[1,5-a]pyrazin-6-yl)-5H-pyrrolo[2,3-d]pyrimidin-6(7H)-one]
